Test results as given in the supplement of paper PMC10307832.

Tests used:
Test in all cases: relative viability (nuclei count vs DMSO), 5 days (fraction); higher = more cells survive
TPCA-1 + Dasatinib = compound: C1=CC(=CC=C1C2=CC(=C(S2)NC(=O)N)C(=O)N)F [TPCA-1] + Cc1nc(Nc2ncc(C(=O)Nc3c(C)cccc3Cl)s2)cc(N2CCN(CCO)CC2)n1 [Dasatinib] (partner 0.075 µM)
Outline: (§1)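 For relative viability, nuclei counts in treated wells were divided by those in vehicle wells. Lung cancer cell lines had been pin-tool dosed in 1536-well plates the day after seeding and cultured for 5 days, then fixed and stained in one step (final 0.05% Triton X-100, 1% formaldehyde, 1 ug/ml Hoechst) and imaged at 4×. Doses were one drug alone or a fixed anchor-drug dose plus five library-drug doses (not always all listed) in √10 steps, and values are duplicate-plate medians.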

[1] = compound: C[C@]12O[C@H](C[C@]1(O)CO)n1c3ccccc3c3c4c(c5c6ccccc6n2c5c31)CNC4=O [Lestaurtinib] + CC(=O)Nc1cccc(-n2c(=O)n(C3CC3)c(=O)c3c(Nc4ccc(I)cc4F)n(C)c(=O)c(C)c32)c1 [Trametinib] (partner 0.02 µM)
Outline: as §1

[2] = compound: C[C@]12O[C@H](C[C@]1(O)CO)n1c3ccccc3c3c4c(c5c6ccccc6n2c5c31)CNC4=O [Lestaurtinib] + O=C(CCCCCCC(=O)Nc1ccccc1)NO [Vorinostat] (partner 1 µM)
Outline: as §1

[3] = compound: C[C@]12O[C@H](C[C@]1(O)CO)n1c3ccccc3c3c4c(c5c6ccccc6n2c5c31)CNC4=O [Lestaurtinib] + Cc1cc(Nc2cc(N3CCN(C)CC3)nc(Sc3ccc(NC(=O)C4CC4)cc3)n2)n[nH]1 [Tozasertib] (partner 0.1 µM)
Outline: as §1

UMC-11
relative viability (TPCA-1 + Dasatinib; first compound 0.04 µM): 0.494
relative viability (TPCA-1 + Dasatinib; first compound 0.1265 µM): 0.443
relative viability (TPCA-1 + Dasatinib; first compound 0.4 µM): 0.494
relative viability (TPCA-1 + Dasatinib; first compound 1.265 µM): 0.457
relative viability (TPCA-1 + Dasatinib; first compound 4 µM): 0.222
relative viability ([1]; first compound 0.005 µM): 0.746
relative viability ([1]; first compound 0.01581 µM): 0.6
relative viability ([1]; first compound 0.05 µM): 0.601
relative viability ([1]; first compound 0.1581 µM): 0.311
relative viability ([1]; first compound 0.5 µM): 0.155
relative viability ([2]; first compound 0.005 µM): 0.367
relative viability ([2]; first compound 0.01581 µM): 0.36
relative viability ([2]; first compound 0.05 µM): 0.323
relative viability ([2]; first compound 0.1581 µM): 0.182
relative viability ([2]; first compound 0.5 µM): 0.118
relative viability ([3]; first compound 0.005 µM): 0.21
relative viability ([3]; first compound 0.01581 µM): 0.206
relative viability ([3]; first compound 0.05 µM): 0.217
relative viability ([3]; first compound 0.1581 µM): 0.18
relative viability ([3]; first compound 0.5 µM): 0.179
